Source: patent US20230147257A1 (DONG-A ST CO., LTD., priority 2020, published 2023)
Where two headings read alike, the source gives them in different places.

How the values were obtained:
Assay type in all cases: cell-based
AhR [1] = biological target: T1, AhR (Homo sapiens, UniProt P35869); test: In vitro assay 4: endogenous AhR activity assay (CYP1A1 and CYP1B1 mRNA, qRT-PCR, HepG2 cells); conditions: TCDD 10 nM with compound 123 nM, 4 hours, mRNA relative to β-actin
T1 construct: host or cells: HepG2
T1 sequence (P35869 11-848): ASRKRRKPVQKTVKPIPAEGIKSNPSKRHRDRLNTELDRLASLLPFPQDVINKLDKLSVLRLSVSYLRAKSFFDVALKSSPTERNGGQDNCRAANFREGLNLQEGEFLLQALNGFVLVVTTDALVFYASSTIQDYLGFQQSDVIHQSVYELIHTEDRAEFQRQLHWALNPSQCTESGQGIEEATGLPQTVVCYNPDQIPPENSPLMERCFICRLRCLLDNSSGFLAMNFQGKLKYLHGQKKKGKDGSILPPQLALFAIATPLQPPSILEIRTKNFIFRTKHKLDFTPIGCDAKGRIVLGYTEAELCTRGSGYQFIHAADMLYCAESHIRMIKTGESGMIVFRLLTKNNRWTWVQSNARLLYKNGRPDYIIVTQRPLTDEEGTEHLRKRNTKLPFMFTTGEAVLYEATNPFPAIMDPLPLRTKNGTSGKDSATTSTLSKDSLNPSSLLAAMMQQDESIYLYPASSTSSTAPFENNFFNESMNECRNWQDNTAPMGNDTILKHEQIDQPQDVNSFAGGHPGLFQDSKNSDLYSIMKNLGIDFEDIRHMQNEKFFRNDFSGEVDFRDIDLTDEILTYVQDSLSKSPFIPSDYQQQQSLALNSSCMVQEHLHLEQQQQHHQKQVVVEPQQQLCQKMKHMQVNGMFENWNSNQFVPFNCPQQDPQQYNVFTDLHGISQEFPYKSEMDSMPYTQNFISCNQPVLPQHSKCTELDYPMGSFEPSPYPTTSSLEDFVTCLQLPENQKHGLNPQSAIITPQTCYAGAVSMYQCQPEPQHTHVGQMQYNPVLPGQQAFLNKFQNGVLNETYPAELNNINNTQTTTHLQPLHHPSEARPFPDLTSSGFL
Method: In Vitro Assay 4: Endogenous AhR Activity Assay
HepG2 cells were seeded in 12-well plate (3×10^5 cells/well). A day after seeding, the cells were treated with TCDD (10 nM) alone or with compounds (123 nM) for 4 hours. Total RNA was extracted using Trizol (Thermo Fisher Scientific). cDNA synthesis and quantitative RT-PCR (qRT-PCR) assays were performed using PrimeScript™ RT Master Mix (TAKARA) and TB Green™ Premix Ex Taq™ II (TAKARA) in accordance with manufacturer's instruction. For the measurement of endogenous AhR activity, relative mRNA levels of CYP1A1 and CYP1B1 were quantitated relative to β(beta)-actin mRNA by the comparative Ct (ΔΔCt) method. The percent inhibitions were calculated according to: […]

AhR [2] = biological target: T1, AhR; test: In vitro assay 1: XRE-luciferase reporter assay, antagonism in human cell line (HepG2); conditions: HepG2 XRE-luciferase, cells treated with kynurenine 200 μM (no *), 6 hours; read-out: Assay 1: AhR-Luc Human Antagonism (IC50)
Procedure, shortened: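 HepG2 cells carrying XRE-firefly luciferase (transient or stable) plus constitutive Nano-Luc control, stimulated 6 h with kynurenine (50 or 200 μM) with or without compound. Firefly/Nano-Luc ratio normalized to kynurenine-alone (maximum) and vehicle (minimum); IC50 by four-parameter nonlinear regression.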

AhR [3] = biological target: T1, AhR; test: In vitro assay 3: XRE-luciferase reporter assay, agonism in human cell line (HepG2); conditions: HepG2 XRE-Luc, tryptophan free medium, test compound alone, 6 hours
Description: In Vitro XRE-Luciferase Reporter Assay (In Vitro Assay 1, 2, 3)
AhR activation leads the induction of target gene expression such as CYP1A1 and CYP1B1 by AhR binding to AhR-responsive DNA elements also known as xenobiotics responsive elements (XRE). The assay for measuring AhR activity herein is the luciferase assay using cell lines transfected with luciferase reporter plasmid containing XREs at the upstream of the reporter gene. Cells transfected with XRE-luciferase reporter (XRE-Luc) plasmid drive luciferase activity reflecting activation and inhibition of AhR in the cells. In addition to transfection with XRE-reporter vector, cells were co-transfected with Nano-luciferase reporter gene construct (Nano-Luc) containing constitutively active promoter as internal control. Kynurenine (an endogenous AhR agonist) was used to stimulate cells to test antagonistic properties of the compounds. The half-maximal inhibitory concentration (IC50) or half-maximal effective concentration (EC50) value was calculated using nonlinear regression (four parameters) with Prism8.0 software (GraphPad).
In Vitro Assay 3: Agonism in Human Cell Line
HepG2 (human hepatoma cell line) cells co-transfected with XRE-Luc and Nano-Luc plasmids were plated in tryptophan free medium containing 1% of dialyzed fetal bovine serum and incubated overnight at 37° C. in a CO2 incubator. After 24 hours, cells were treated for 6 hours with test compounds or not. Firefly luciferase and Nano-luciferase activity was measured using Nano-glo Luciferase kit (Promega) and relative luciferase activity (Firefly/Nano-Luc) was used to calculate EC50 values. As a positive control, cells were incubated with TCDD. (EC50 Values are grouped as A, B, C and D, whereby A: EC50<0.1 μM; B: 0.1<EC50<1.0 μM; C: 1.0<EC50<10 μM; D: EC50>10 μM)

Compound: CC(CO)n1cnc2c(-c3cccnc3)nc(-c3ccc(Cl)cc3)cc2c1=O (centres unmarked) [Example 46, 6-(4-chlorophenyl)-3-(1-hydroxypropan-2-yl)-8-(pyridin-3-yl)pyrido[3,4-d]pyrimidin-4(3H)-one]
- inhibition at 0.123 µM (AhR [1]; read-out: CYP1A1 (% Inhibition)): 90.7%
- inhibition at 0.123 µM (AhR [1]; read-out: CYP1B1 (% Inhibition)): 99.1%
- IC50 (AhR [2]): < 10 nM
- EC50 (AhR [3]; read-out: Assay 3: AhR-Luc Human Agonism (EC50)): > 30000 nM
- EC50 (AhR [3]; read-out: Assay 3: AhR-Luc Human Agonism (EC50, nM), class in brackets): > 10000 nM
